From US9347888B2, “Detection of bacteria exhibiting a resistance to carbapenems” (BIOMERIEUX, priority 2011, dated 2016)

Experiments:
[1] = system: IR (impermeability resistance) strains; assay: Impact of cloxacillin and/or PAbetaN with faropenem, agar dilution; type: cell-based, Gram-negative bacteria
Protocol: (§1) Seventy-seven strains of Gram-negative bacteria, of which 71 are enterobacteria and 6 non-enterobacteria (non-fermenting bacteria), whose resistance characteristics are set out in Table VIII, were tested on media containing different concentrations of faropenem and cloxacillin, with or without PAbetaN, in order to establish the sensitivity and the specificity of each formulation. The tested media are described in Table IX.
(§2) The chromogenic media are divided into 120×120 square dishes.
(§3) The seeding is performed from 24-h pre-cultures at 37° C. on trypcase soy agar. For each strain, a 0.5 McF suspension in physiological water is produced. Each suspension is spot-seeded (1 to 2 μL) on each medium with the aid of a multi-point inoculator according to the Agar Dilution (AD) method. Readings are performed after 24 hours of incubation at 37° C.
(§4) An absence of bacterial growth or a number of colonies which is less than or equal to 3 are considered as corresponding to growth inhibition. The presence of 4 colonies or more is considered to be positive growth.

Total carbapenemases = assay: as above; type: cell-based, Gram-negative bacteria; conditions: cloxacillin alone (no PAbetaN), at the 3 concentrations of faropenem tested
Protocol: as §1, §2, §3, §4

[2] = Test of stability of the different carbapenems in agar medium; type: physicochemical; conditions: agar media kept at 2 to 8°C up to 9 weeks (63 days); strains seeded D0, D14, D42, D63
Protocol: Agar media modelled on those indicated supra were prepared and kept at a temperature of between 2 and 8° C. for up to 9 weeks (63 days).
ESBL and AmpC strains, and carbapenemases from class B, IR or KPC, were seeded on these different media on D0, D14, D42 and D63.

KPC strains = assay: Faropenem on pure strains, agar dilution: MIC and growth of KPC strains; type: cell-based, Gram-negative bacteria
Protocol: (§5) Seventy-nine strains of Gram-negative bacteria, of which 69 are enterobacteria and 10 non-enterobacteria (non-fermenting bacteria), whose resistance characteristics are set out in Table I, were tested on media containing different concentrations of faropenem in order to establish the sensitivity/specificity of each formulation. The dishes were read after 24 hours of incubation at 37° C.
(§6) The medium used is a conventional agar medium comprising at least one chromogenic substrate, and supplemented with faropenem at the following concentrations:
(§7) The media are divided into 120×120 square dishes.
(§8) The seeding is performed from 24-h pre-cultures at 37° C. on trypcase soy agar.
(§9) For each strain, a 0.5 McF suspension in physiological water is produced and then diluted 1/100.
(§10) Each suspension is spot-seeded (1 to 2 μL) on each medium with the aid of a multi-point inoculator according to the Agar Dilution (AD) method.
(§11) Readings are performed after 24 hours of incubation at 37° C.
(§12) For interpretation, the following cases are considered as corresponding to growth inhibition: • absence of bacterial growth • number of colonies≦3
(§13) The presence of 4 colonies or more is considered to be positive growth.

[3] = system: strains with other types of resistance (ESBL or cephalosporinase, impermeability resistance); assay: Faropenem on pure strains, agar dilution: detection specificity; type: cell-based, Gram-negative bacteria; conditions: medium containing 16 mg/L faropenem; for Detection specificity (strains inhibited/strains): 24 h 37°C
Protocol: as §5, §6, §7, §8, §9, §10, §11, §12, §13

[4] = system: carbapenemase-producing strains; assay: Faropenem on pure strains, agar dilution: detection sensitivity; type: cell-based, Gram-negative bacteria; conditions: medium containing 16 mg/L faropenem; for Detection sensitivity (strains detected/strains): 24 h 37°C
Protocol: as §5, §6, §7, §8, §9, §10, §11, §12, §13

In the case of `Cc1onc(-c2ccccc2Cl)c1C(=O)N[C@@H]1C(=O)N2[C@@H]1SC(C)(C)[C@@H]2C(=O)O` [cloxacillin], the “additional IR strains inhibited” value ([1]; addition of 50 mg/L cloxacillin at 16 mg/L of faropenem) is reported as 6, the “additional IR strains inhibited” value ([1]; addition of 200 mg/L cloxacillin at 16 mg/L of faropenem) is reported as 9 and the “impact on the growth of the carbapenemase-producing strains” value (Total carbapenemases) is reported as “little or no impact”.
With `C[C@@H](O)[C@H]1C(=O)N2C(C(=O)O)=C(S[C@@H]3CN[C@H](CNS(N)(=O)=O)C3)[C@H](C)[C@H]12` [doripenem] the “stability in agar medium” value [2] was “close to that of ertapenem, and greater than that of imipenem and of meropenem”.
For `C[C@@H](O)[C@H]1C(=O)N2C(C(=O)O)=C([C@H]3CCCO3)S[C@H]12` [faropenem], the “KPC strains developing on the medium” value (KPC strains; faropenem at 16 mg/L) was “All of the KPC strains develop”, the “MIC of the totality of KPC strains” value (KPC strains; whatever the inoculum tested, unit not printed (media in mg/L)) was greater than 32 and the “No. IR developing (/19)” value ([1]; PAbetaN 0, cloxacillin 0, faropenem 8 mg/L) was 16. For the same compound, the “No. IR developing (/19)” value ([1]; PAbetaN 0, cloxacillin 0, faropenem 16 mg/L) was 15, the “No. IR developing (/19)” value ([1]; PAbetaN 0, cloxacillin 0, faropenem 32 mg/L) was 10 and the “No. IR developing (/19)” value ([1]; PAbetaN 0, cloxacillin 50, faropenem 8 mg/L) was 14. The “No. IR developing (/19)” value ([1]; PAbetaN 0, cloxacillin 50, faropenem 16 mg/L) was 9, the “No. IR developing (/19)” value ([1]; PAbetaN 0, cloxacillin 50, faropenem 32 mg/L) was 4 and the “No. IR developing (/19)” value ([1]; PAbetaN 0, cloxacillin 100, faropenem 8 mg/L) was 11. The “No. IR developing (/19)” value ([1]; PAbetaN 0, cloxacillin 100, faropenem 16 mg/L) was 6, the “No. IR developing (/19)” value ([1]; PAbetaN 0, cloxacillin 100, faropenem 32 mg/L) was 2 and the “No. IR developing (/19)” value ([1]; PAbetaN 0, cloxacillin 200, faropenem 8 mg/L) was 11. The “No. IR developing (/19)” value ([1]; PAbetaN 0, cloxacillin 200, faropenem 16 mg/L) was 6, the “No. IR developing (/19)” value ([1]; PAbetaN 0, cloxacillin 200, faropenem 32 mg/L) was 1 and the “No. IR developing (/19)” value ([1]; PAbetaN 25, cloxacillin 50, faropenem 8 mg/L) was 11. The “No. IR developing (/19)” value ([1]; PAbetaN 25, cloxacillin 50, faropenem 16 mg/L) was 10, the “No. IR developing (/19)” value ([1]; PAbetaN 25, cloxacillin 50, faropenem 32 mg/L) was 5 and the “No. IR developing (/19)” value ([1]; PAbetaN 25, cloxacillin 100, faropenem 8 mg/L) was 10. For the same compound, the “No. IR developing (/19)” value ([1]; PAbetaN 25, cloxacillin 100, faropenem 16 mg/L) was 5, the “No. IR developing (/19)” value ([1]; PAbetaN 25, cloxacillin 100, faropenem 32 mg/L) was 1 and the “No. IR developing (/19)” value ([1]; PAbetaN 25, cloxacillin 200, faropenem 8 mg/L) was 7. The “No. IR developing (/19)” value ([1]; PAbetaN 25, cloxacillin 200, faropenem 16 mg/L) was 1, the “No. IR developing (/19)” value ([1]; PAbetaN 25, cloxacillin 200, faropenem 32 mg/L) was 1 and the “impact on IR strains” value ([1]; faropenem alone, up to a concentration of 16 mg/L) was “little impact”. The Detection specificity ([3]; inoculum 0.5 McF) was 66.7%, the Detection specificity ([3]; inoculum 0.5 McF diluted 1/100) was 71.4% and the “Detection specificity (strains inhibited/strains)” value ([3]; inoculum 0.5 McF diluted 1/100) was 15/21. For the same compound, the “Detection specificity (strains inhibited/strains)” value ([3]; inoculum 0.5 McF) was 14/21, the Detection sensitivity ([4]; inoculum 0.5 McF) was 91.4% and the Detection sensitivity ([4]; inoculum 0.5 McF diluted 1/100) was 91.4%. For the same compound, the “Detection sensitivity (strains detected/strains)” value ([4]; inoculum 0.5 McF diluted 1/100) was 53/58, the “Detection sensitivity (strains detected/strains)” value ([4]; inoculum 0.5 McF) was 53/58 and the “stability in agar medium” value [2] was “close to that of ertapenem, and greater than that of imipenem and of meropenem”.
